Earlier results in patent US7135437B2, “Stable liquid pesticide compositions” (Monsanto Technology LLC, priority 2000, dated 2006).

Details: at 20° C.

O=C(O)CNCP(=O)([O-])O.[K+] [glyphosate potassium salt]
solubility in pure water, glyphosate acid equivalent: about 44 % glyphosate acid equivalent (a.e.) by weight | solubility in pure water (as salt): about 54 % by weight
